In this assay the target is T1, Human HPK1, catalytic domain (Homo sapiens, UniProt Q92918).
T1 construct: purchased Cama (so in the source)
T1 sequence (Q92918 1-346): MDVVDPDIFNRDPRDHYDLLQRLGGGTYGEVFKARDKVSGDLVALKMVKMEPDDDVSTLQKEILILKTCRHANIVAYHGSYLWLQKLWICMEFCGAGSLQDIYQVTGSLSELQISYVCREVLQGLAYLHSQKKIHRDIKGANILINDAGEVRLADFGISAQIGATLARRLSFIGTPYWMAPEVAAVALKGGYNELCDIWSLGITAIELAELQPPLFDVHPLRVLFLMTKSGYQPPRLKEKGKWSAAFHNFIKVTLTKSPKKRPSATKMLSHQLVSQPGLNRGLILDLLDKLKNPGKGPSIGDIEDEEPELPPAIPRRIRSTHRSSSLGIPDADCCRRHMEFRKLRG
The assay is described as follows: HPK1-SLP76 TR-FRET assay. The assay is classed as biochemical. Particulars: HPK1 kinase domain 0.075 nM; full length SLP-76 10 nM; ATP 10 μM; 30 min preincubation; 60 min reaction; room temperature. (In general: TR-FRET usually uses a lanthanide donor and a delayed reading to cut background.)

One may read the IC50 as the concentration needed to halve the response being measured. Higher therefore signals lower potency. As to `Cc1c(-c2cc3nc(Nc4cnn([C@H]5CCN(C)C5)c4)ncc3c(N)c2F)cnc2c1NCCO2` [Example 2-47, (S)-6-fluoro-7-(8-methyl-2,3-dihydro-1H-pyrido[2,3-b][1,4]oxazin-7-yl)-N2-(1-(1-methylpyrrolidin-3-yl)-1H-pyrazol-4-yl)quinazoline-2,5-diamine], inhibition was half-maximal at 0.177 nM (IC50).

`Cc1c(-c2cc3nc(Nc4cnn([C@@H]5CCN(C)C5)c4)ncc3c(N)c2F)cnc2c1NCCO2` [Example 2-48, (R)-6-fluoro-7-(8-methyl-2,3-dihydro-1H-pyrido[2,3-b][1,4]oxazin-7-yl)-N2-(1-(1-methylpyrrolidin-3-yl)-1H-pyrazol-4-yl)quinazoline-2,5-diamine] registered an IC50 of 0.166 nM.

The values above are taken from US20230406864A1, “7-AZOLE SUBSTITUTED 2-AMINOQUINAZOLINE INHIBITORS OF HPK1” (MERCK SHARP & DOHME LLC, priority 2020, published 2023).
